According to article PMC6891756, “Synthesis and Biological Evaluation of Novel Aminochalcones as Potential Anticancer and Antimicrobial Agents” (Molecules, 2019):
Values after ≈ are worked out from the molar mass of the structure shown.

Assays:
Trichophyton rubrum = tested on: Trichophyton rubrum; set-up: method as in doi:10.1007/s10600-018-2281-7; details: cited from earlier work
[1] = tested on: Staphylococcus aureus DSM799; assay: Microbial growth curve screening, S. aureus; format: cell-based; details: 0.1% (w/v); for ∆OD S. aureus: OD at 560 nm, control 1.67
Description: (§1) The antimicrobial screening tests were performed on two strains of bacteria: E. coli ATCC10536 and S. aureus DSM799, strain of yeast C. albicans DSM1386 and three strains of fungi: F. linii KB-F1, A. alternata CBS1526 and A. niger DSM1957. All microorganisms were obtained from the collection of the Faculty of Biotechnology and Food Microbiology, Wrocław University of Environmental and Life Sciences. The bacteria were cultured in nutrient broth (Biocorp, Warsaw, Poland), yeast and fungi in YM medium (3 g yeast extract, 3 g malt extract, 5 g bacteriological peptone and 10 g of glucose dissolved in 1 L of distilled water). The tests were carried out in 100-well microtiter plates. To each well 280 μL of culture medium, 10 μL of microorganism suspension and 10 μL of aminochalcone (1–18) dissolved in dimethyl sulfoxide (3% (w/v)) were added. The final concentration of the tested compound (1–18) was 0.1% (w/v). Each experiment were performed in 3 replications. The optical density of the cell suspension was measured on Bioscreen C (Automated Growth Curve Analysis System Lab System, Vantaa, Finland) at 560 nm automatically, at regular intervals of 30 min for 2–3 days. Cell cultures were maintained at 28 °C on a continuous shaker. To prepare the growth curves for each strain, the mean values of the absorbance in a function of time were used. The resulting antimicrobial activity was expressed as the increase of optical density (ΔOD) and was compared to that of the control cultures in the medium supplemented with dimethyl sulfoxide and also with reference substances: oxytetracycline (against bacteria), cycloheximide (against yeast) and nystatin (against fungi) (Sigma Aldrich).

Candida albicans DSM1386 = assay: MIC evaluation (broth method), C. albicans; format: cell-based; details: DSM1386, broth method, 48–72 h, read-out: Minimal inhibitory concentration C. albicans
Description: (§2) Sterile 96-well microtiter plates (Sarstedt) with nutrient broth (for bacteria) (Biocorp) or YM medium (for yeast and filamentous fungi) were inoculated with a standardized cell suspension of bacteria and yeast or fungal spores of 10^5 cell·mL^−1, and supplemented with aminochalcones dissolved in DMSO. […] All analysis were conducted in triplicates. The plates were incubated at 30 °C (bacteria and yeast) or 25 °C (filamentous fungi) for 48–72 h. The results were measured with the Spark® Multimode Microplate Reader (Tecan, Männedorf, Switzerland) at a 560 nm wavelength. The minimal inhibitory concentration was defined as the lowest concentration of a tested compound that completely restricted the growth of the microorganism. In order to verify the obtained results, microbial cultures subjected to each concentration of aminochalcone were inoculated onto nutrient agar or YM plates and incubated as described above. The lack of growth on agar plate was a confirmation of the MIC of the tested compound. The resulting MIC values were compared with the reference substances: oxytetracycline (against bacteria), cycloheximide (against yeast) and nystatin (against fungi) (Sigma Aldrich).

[2] = tested on: Escherichia coli ATCC10536; assay: Microbial growth curve screening, E. coli; format: cell-based; details: 0.1% (w/v), OD at 560 nm, control 1.61
Description: as §1

LS180 = assay: SRB antiproliferative assay, LS180; format: cell-based, human; details: Homo sapiens, LS180, 48 h, 1–100 µg·mL^−1, ND = not detected in the tested concentration range
Description: (§3) Anticancer activity was evaluated using the sulforhodamine B assay (SRB) on four different human colon cancer cell lines: HT-29, LS180, LoVo and LoVo/DX and green monkey kidney fibroblasts COS7 (ATCC, Manassas, VA, USA). Cell lines HT-29 and COS7 were cultured in α-MEM medium (IIET PAS, Wrocław, Poland), LS180 in OptiMEM medium (IIET PAS), LoVo and LoVo/DX in mixture of α-MEM and OptiMEM medium (1:1 (v:v)). Each culture medium was supplemented with 10% fetal bovine serum, 2 mM glutamine, 100 μg·mL^−1 penicillin, 100 μg·mL^−1 streptomycin and 0.25 μg·mL^−1 amphotericin (all supplements purchased from Gibco (Paisley, UK). Cells were incubated at 37 °C, 5% CO2 in HeraCELL 150i incubator (Thermo Fisher Scientific, Waltham, MA, USA).
(§4) For the SRB assay, cells were seeded onto 96-well plates (Sarstedt, Nümbrecht, Germany) at a density of 5·10^3/well and cultured overnight as described above. Then, the growth medium was gently removed and replaced with fresh medium, supplemented with aminochalcone derivatives in the concentration ranging from 1 µg·mL^−1 to 100 µg·mL^−1. All stock solutions were prepared in DMSO at a concentration of 10 mg·mL^−1. Cells were incubated for 48 h and then the SRB assay was performed as described previously. Each experiment was performed in quadruplicate. The final results were reported as the IC50 values calculated for three independent experiments. Cisplatin (Acros Organics, Waltham, MA, USA) and doxorubicin (Fisher BioReagents, Waltham, MA, USA) were used as positive controls of the test.

HT-29 = assay: SRB antiproliferative assay, HT-29; format: cell-based, human; details: Homo sapiens, HT-29; SRB, 48 h, 1–100 µg·mL^−1; ND = not detected in the tested concentration range
Description: as §3, §4

Fusarium linii KB-F1 [3] = assay: Microbial growth curve screening, F. linii; format: cell-based; details: 0.1% (w/v); for ∆OD F. linii: OD at 560 nm, control 1.95
Description: as §1

[4] = tested on: Escherichia coli ATCC10536; assay: MIC evaluation (broth method), E. coli; format: cell-based; details: 48–72 h, read-out: Minimal inhibitory concentration E. coli
Description: as §2

LoVo = assay: SRB antiproliferative assay, LoVo; format: cell-based, human; details: Homo sapiens, LoVo, 48 h, 1–100 µg·mL^−1, ND = not detected in the tested concentration range
Description: as §3, §4

Fusarium linii KB-F1 [5] = assay: MIC evaluation (broth method), F. linii; format: cell-based; details: Fusarium, KBF1, 48–72 h, read-out: Minimal inhibitory concentration F. linii
Description: as §2

LoVo/DX = assay: SRB antiproliferative assay, LoVo/DX; format: cell-based, human; details: Homo sapiens, LoVo/DX, 48 h, 1–100 µg·mL^−1, ND = not detected in the tested concentration range
Description: as §3, §4

[6] = tested on: Aspergillus niger DSM1957; assay: Microbial growth curve screening, A. niger; format: cell-based; details: 0.1% (w/v); for ∆OD A. niger: OD at 560 nm, control 2.14; for Lag-phase A. niger: control 11.0 h
Description: as §1

[7] = tested on: Alternaria alternata CBS1526; assay: Microbial growth curve screening, A. alternata; format: cell-based; details: 0.1% (w/v); for ∆OD A. alternata: OD at 560 nm, control 1.86
Description: as §1

[8] = SRB assay, normal fibroblasts COS7; format: cell-based, green monkey; details: green monkey, COS7 kidney fibroblasts (normal cell line), ND = not detected in the tested concentration range
Description: as §3, §4

[9] = tested on: canine malignant histiocytic cell line (DH82); set-up: method as in PMID 28738308; details: read-out: IC50 DH82 proliferation (literature); cited from earlier work
[10] = tested on: Staphylococcus aureus DSM799; assay: MIC evaluation (broth method), S. aureus; format: cell-based; details: 48–72 h, read-out: Minimal inhibitory concentration S. aureus
Description: as §2

[11] = tested on: HT-29, LS180, LoVo and LoVo/DX; assay: SRB assay, all tested human colon cancer cell lines (pooled statement); format: cell-based; details: range over HT-29, LS180, LoVo, read-out: IC50 values against all tested human colon cancer cell lines
Description: as §3
as §4, with “Cisplatin (Acros Organics, Waltham, MA, USA) and doxorubicin (Fisher BioReagents, Waltham, MA, USA) were used as positive controls of the test.” left out

[12] = tested on: Alternaria alternata CBS1526; assay: MIC evaluation (broth method), A. alternata; format: cell-based; details: Alternaria alternata, CBS1526, 48–72 h, read-out: Minimal inhibitory concentration A. alternata
Description: as §2

Row | Structure (SMILES) | melting point [°C] | ∆OD S. aureus [1] | MIC (Candida albicans DSM1386) [µg/mL] | ∆OD E. coli [2] | IC50 (LS180) [µg/mL] | IC50 (HT-29) [µg/mL] | ∆OD F. linii (Fusarium linii KB-F1 [3]) | MIC [4] [µg/mL] | IC50 (LoVo) [µg/mL] | IC50 (LoVo/DX) [µg/mL] | ∆OD A. niger [6] | Lag-phase A. niger [6] [h] | ∆OD A. alternata [7] | IC50 at 48 h [8] [µg/mL] | IC50 [9] [µM] | other results
1 | Nc1ccccc1C(=O)/C=C/c1ccc([N+](=O)[O-])cc1 [Compound 10, 2′-Amino-4-nitrochalcone] | 114 to 117 | 0.15 | 0.5 (≈ 1.86 µM) | 0.0 | 2 ± 0.35 (≈ 7.46 µM) | 3.24 ± 0.27 (≈ 12.1 µM) | 0.0 | 0.25 (≈ 0.932 µM) | 1.11 ± 0.07 (≈ 4.14 µM) | 0.96 ± 0.12 (≈ 3.58 µM) | 0.79 | 23.0 | 0.20 | 1.79 ± 0.14 (≈ 6.67 µM) |  | MIC80 Trichophyton rubrum (literature) (Trichophyton rubrum): 0.5 µg/mL (≈ 1.86 µM); Lag-phase S. aureus ([1]; control 2.5 h): 11.5 h; MIC (Fusarium linii KB-F1 [5]): 0.5 µg/mL (≈ 1.86 µM); Lag-phase A. alternata ([7]; control 16.5 h): 0.5 h
2 | Nc1ccc(C(=O)/C=C/c2ccc(Cl)cc2)cc1 [4′-amino-4-chlorochalcone] |  |  |  |  |  |  |  |  |  |  |  |  |  |  | 31.4 | 
3 | Nc1cccc(C(=O)/C=C/c2ccccc2)c1 [Compound 2, 3′-Aminochalcone] | 121 to 124 | 0.0 | 0.5 (≈ 2.24 µM) | 0.0 | 2.13 ± 0.18 (≈ 9.54 µM) | 1.6 ± 0.01 (≈ 7.17 µM) | 0.23 | 0.25 (≈ 1.12 µM) | 1.88 ± 0.12 (≈ 8.42 µM) | 1.97 ± 0.3 (≈ 8.82 µM) | 0.34 | 1.5 | 0.0 | 3.25 ± 0.66 (≈ 14.6 µM) |  | MIC [10]: 0.25 µg/mL (≈ 1.12 µM); IC50 [11]: 1.6 to 2.13 µg/mL (≈ 7.17 to 9.54 µM); Lag-phase F. linii (Fusarium linii KB-F1 [3]; control 13.5 h): 30.0 h; MIC [12]: 0.5 µg/mL (≈ 2.24 µM)
4 | Cc1ccc(/C=C/C(=O)c2ccccc2N)cc1 [2′-amino-4-methylchalcone] |  |  |  |  |  |  |  |  |  |  |  |  |  |  | 38.2 | 
